Data on three compounds can be found in paper PMC12705620 (Frontiers in Pharmacology, 2025).

Experiment [1] deals with S. aureus LUH14616 (MRSA). Briefly: Ex vivo human skin wound infection model. Also noted: species or system Staphylococcus aureus. The conditions noted are these: 0.5% (v/v) in 70% ethanol, positive control, 4 h, p < 0.001. An excerpt: Human skin from 3 donors was obtained via the Residual Tissue Biobank of the Red Cross Hospital (Beverwijk, Netherlands). The use of these coded, post-operative residual tissue samples was approved by patients through the informed opt-out-plus protocol of the Red Cross Hospital Skin ([Code-of-Conduct-for-Health-Research, 2022]) and processed for an ex vivo wound infection model as described ([Dijksteel et al., 2020]). The Wounded skin grafts were sectioned into approximately 1 cm^2 samples using a sterile scalpel and were decontaminated by immersion in 70% ethanol for 30 min, followed by three PBS washes. Samples were placed dermis-down and wound-side-up on stainless steel grids with central indentations, positioned in 12-well plates, and cultured at the air–liquid interface in DMEM at 37 °C and 5% CO2. To confine reagents to the wound area, a resin barrier (OpalDam; Ultradent) was applied to the wounded area and polymerized using a hand-held UV light (Valo X) for 10 s. The wounds were then topically infected with 10 µL of S. aureus LUH14616 suspension of 1 × 10^7 CFU/mL (final dose: 1 × 10^5 CFU/graft) in PBS for 1 h, followed by topical application of 10 µL of peptide solution for 4 h. Chlorhexidine (0.5% (v/v) in 70% ethanol; Entick B.V.) and PBS were used as positive and negative controls, respectively. After treatment, tissue samples were transferred to polypropylene vials containing 1 mL PBS supplemented with 0.025% (v/v) SPS and a 7 mm stainless steel bead. Homogenization was performed using a MagnaLyser System (Roche) with three 30-s cycles at 7,000 rpm, with 30 s of cooling on ice between cycles. Homogenates were 10-fold serially diluted in PBS, and 100 µL aliquots were plated on BA plates. CFUs were enumerated after overnight incubation at 37 °C.

For experiment [2], the system named is Staphylococcus aureus JAR060131. Format: cell-based. As to conditions: JAR060131, 18 h. Here is the method: Bactericidal activity was assessed as previously described ([Breij et al., 2018]). Briefly, mid-logarithmic phase bacterial cultures were diluted in RPMI to 1 × 10^7 CFU/mL. For fungicidal assays, fungal cultures were prepared in RPMI supplemented with 1% glucose (Merck) and diluted to 2–5 × 10^5 CFU/mL. For each condition, 10 µL of the suspension was added to 90 µL of peptide-containing RPMI or RPMI supplemented with 50% (v/v) pooled human plasma (hereafter referred to as 50% plasma; final bacterial concentration 1 × 10^6 CFU/mL, final fungal concentration 2–5 × 10^4 CFU/mL. Human plasma from four healthy volunteers (Sanquin, Netherlands) was pooled, and stored at −20 °C until use. Peptides were tested similarly for fungicidal activity, after 18 h of incubation at 37 °C with shaking (120 rpm) under humidified conditions, bacterial and fungal survival was determined by plating 10 µL aliquots onto BA plates. Assays were performed in duplicate in round-bottom polypropylene microtiter plates (Costar) and repeated independently three times. Untreated controls included bacteria exposed to RPMI alone or RPMI with 50% plasma. Bactericidal and fungicidal activity was expressed as the lethal concentration 99.9% (LC99.9), defined as the lowest peptide concentration causing ≥99.9% reduction in numbers of CFU compared to the initial inoculum.

Experiment [3] concerns HaCaT keratinocytes. Briefly: In vitro scratch wound assay. Format: cell-based, human. As to conditions: 1 µM peptide (TGF-β 20 ng/mL). Here is the method: Cell migration following injury was assessed using an in vitro scratch assay with the IncuCyte wound maker tool (Sartorius). HaCaT keratinocytes were seeded in 96-well ImageLock plates (Sartorius) at 3 × 10^5 cells/well (100 µL) in DMEM supplemented with 10% FBS and incubated at 37 °C, 5% CO2 for 48 h, with medium change at 24 h, until confluence. Uniform scratches were introduced using the wound maker tool according to the manufacturer’s instructions. After wounding, wells were washed twice with 100 µL PBS to remove cell debris. Cells were then treated with 1 µM peptides in serum-free DMEM, to focus specifically on cell migration from the wound edges. The absence of serum minimizes interference with peptide activity. Transforming growth factor-beta (TGF-β; human; 20 ng/mL; Sigma-Aldrich) and 5% dimethyl sulfoxide (DMSO; Sigma-Aldrich) were used as positive and negative controls, respectively. Additional controls included serum-free DMEM (no-treatment control) and 50% (v/v) acetonitrile in Milli-Q water as solvent control. Wound closure was monitored using the IncuCyte S3 live-cell imaging system (Sartorius) with bright-field microscopy. Images were captured every 6 h for up to 60 h. Image analysis was performed using ImageJ software (version 1.53t, NIH, USA) with the “Wound Healing” plugin, as described by Suarez Arnedo et al. ([Suarez-Arnedo et al., 2020]). Quantitative parameters included wound width (µm), percent wound closure, and migration rate (µm/hour).

Take `[H]/N=C(\N/C(=N/[H])NCCCCCCNC(=N)NC(=N)Nc1ccc(Cl)cc1)Nc1ccc(Cl)cc1` [Chlorhexidine, reference compound]: in experiment [1], the “Reduction of bacterial burden (CFU counts)” value was “significantly reduced bacterial burden”.

For `N=C(N)NCCC[C@H](NC(=O)[C@H](Cc1c[nH]c2ccccc12)NC(=O)[C@H](CCC(N)=O)NC(=O)[C@H](Cc1c[nH]c2ccccc12)NC(=O)[C@H](CCCNC(=N)N)NC(=O)[C@@H](N)CCCNC(=N)N)C(=O)NCC(CNC(=O)[C@H](CCCNC(=N)N)NC(=O)[C@H](Cc1c[nH]c2ccccc12)NC(=O)[C@H](CCC(N)=O)NC(=O)[C@H](Cc1c[nH]c2ccccc12)NC(=O)[C@H](CCCNC(=N)N)NC(=O)[C@@H](N)CCCNC(=N)N)OCC(=O)NCCCCCC(=O)N[C@@H](CSSC[C@H](NC(=O)CCCCCNC(=O)COC(CNC(=O)[C@H](CCCNC(=N)N)NC(=O)[C@H](Cc1c[nH]c2ccccc12)NC(=O)[C@H](CCC(N)=O)NC(=O)[C@H](Cc1c[nH]c2ccccc12)NC(=O)[C@H](CCCNC(=N)N)NC(=O)[C@@H](N)CCCNC(=N)N)CNC(=O)[C@H](CCCNC(=N)N)NC(=O)[C@H](Cc1c[nH]c2ccccc12)NC(=O)[C@H](CCC(N)=O)NC(=O)[C@H](Cc1c[nH]c2ccccc12)NC(=O)[C@H](CCCNC(=N)N)NC(=O)[C@@H](N)CCCNC(=N)N)C(N)=O)C(N)=O` (some centres unmarked) [LBT-2], the LC99.9 in experiment [2] was 0.47 µM.

TGF-β: the “Percentage of wound closure” value in experiment [3] (60 h (legend: 64 h), versus no treatment) was “near-complete wound closure”. In addition, in experiment [3] (serum-free DMEM, versus untreated control), the Wound width reduction entry was “highest wound width reduction”. The “Rate of cell migration” value in experiment [3] (versus no treatment) is “faster wound closure”.
